Consider three compounds from US7537912B2, “Methods of measuring luminogenic activity with a protected coelenterazine” (Promega Corporation, priority 2001, dated 2009).

The test system of test [1] is CHO hRL25 cells (which express luciferase). In words: Localization of luminescence, cells expressing luciferase. Type of test: cell-based, Chinese hamster. To be noted: 100 μM substrate; for RL (RLU): after addition of purified Renilla luciferase; for Subs (RLU): before exogenous luciferase. The protocol:
(§1) CHO hRL25 cells (which express luciferase) (4.5 mL of (7.5×10^5 cells)/(plate/5×10^9 cells/mL) were resuspended in 5.5 mL media and put into 96 well plates. The next day, the cells were aspirated, washed with 100 μL PBS, and then aspirated again. 100 μL of media (F12) containing no substrate (background) was then added to wells containing no cells. These wells were then read for 1 sec/well with an ORION Luminometer (BERTHHOLD) (Table E; Bkg).
(§2) Similarly, 100 μL portions of media containing 100 μM of either POM-h or coelenterazine-h were placed in wells containing cells or wells alone. These wells were then read for 1 sec/well with an ORION Luminometer (BERTHHOLD) immediately following (coelenterazine) and 10 minutes post-addition (POM-h) (Table E; Subs).
(§3) Thereafter, 0.5 μL of purified Renilla luciferase (3.96×10^−5 M/Reaction (Chemicon) was added to each well. All wells were then read for 1 second/well (Table E; RL).
(§4) Similarly, 100 μL portions of media (F12) containing 100 μM of either coelenterazine or triacetyl coelenterazine were placed in wells containing cells or wells alone. These wells were then read for 1 sec/well with an ORION Luminometer (BERTHHOLD) immediately following (coelenterazine) and 4 minutes post-addition (triacetyl coelenterazine) (Table F; Subs).
(§5) Thereafter, 0.5 μL of purified Renilla luciferase (3.96×10^−5 M/Reaction (Chemicon) was added to each well. All wells were then read for 1 second/well (Table F; RL).

Test [2] concerns CHO cells transfected with pHRL CMV (Renilla luciferase). In words: Live cell assay, signal to background ratio. To be noted: for Change of luminescence from cell samples after Tergitol NP-9 was added: TERGITOL NP-9 final concentration 1%. The format is cell-based, Chinese hamster. The source says: In these examples, the behavior of luminophores and protected luminophores were examined in situ in a variety of cultured cells. Cells were transiently or stably transfected with a plasmid encoding Renilla luciferase. Luminescence was compared between cells contacted with a coelenterazine (VI or VII) or a protected luminophore (IX, XV, or XVI).
Chinese hamster ovary (CHO) cells were maintained in Ham's F-12 media supplemented with 10% fetal bovine serum (FBS). HeLa and 293 cells were maintained in DMEM media supplemented with 10% fetal calf serum (FCS). All cell lines were grown at 37° C. in the presence of 5% CO2. Cells were transiently transfected with either 15 μg pUC19 or pRL-Control plasmid (PROMEGA CORPORATION, E6271 ) at a concentration of 7.5×10^5 cells per 10 cm plate using Tfx-20 (PROMEGA CORP., E2391) or TransFast™ Transfection Reagent (PROMEGA CORP., E2431). The following day, transfections were pooled and split into 48 wells of a white DYNEX 96-well luminometer plate.
The cells thus prepared were then subjected to a variety of assays. Reaction buffers for these assays were prepared using either DMEM or F12 media with FBS or FCS (10% by volume). Coelenterazine VI, coelenterazine VII or one of protected luminophores IX, XV, or XVI was then added to yield a concentration of 60 μM. These buffers were then used for luminescence measurements in the following assays. Luminescence was measured using an ORION luminometer.
Media was aspirated from the cells after 24 or 48 hours following transfection. The cells were washed with 100 μl per well of 1× phosphate buffered saline. Reaction buffer containing either VI or IX was titrated into complete media by half-logs, and these solutions were added to empty wells and to wells containing transfected cells. Luminescence was measured 5 minutes after media replacement. Immediately following the initial measurement, TERGITOL NP-9 (SIGMA CHEMICALS) was added to a final concentration of 1%. Samples were mixed for approximately 15 seconds, and luminescence was integrated over 1 second per well. The luminescence measured from cell samples increased after Tergitol NP-9 was added to samples containing coelenterazine VI or VII.
Autoluminescence was taken as the luminescence measured for samples containing medium and serum alone. The luminescence divided by the autoluminescence was taken as the signal to background ratio (S/B).

Another test concerns the target T1, Renilla luciferase (Renilla reniformis, UniProt P27652).
T1 construct: purchased Chemicon Corp
T1 sequence (P27652 1-311): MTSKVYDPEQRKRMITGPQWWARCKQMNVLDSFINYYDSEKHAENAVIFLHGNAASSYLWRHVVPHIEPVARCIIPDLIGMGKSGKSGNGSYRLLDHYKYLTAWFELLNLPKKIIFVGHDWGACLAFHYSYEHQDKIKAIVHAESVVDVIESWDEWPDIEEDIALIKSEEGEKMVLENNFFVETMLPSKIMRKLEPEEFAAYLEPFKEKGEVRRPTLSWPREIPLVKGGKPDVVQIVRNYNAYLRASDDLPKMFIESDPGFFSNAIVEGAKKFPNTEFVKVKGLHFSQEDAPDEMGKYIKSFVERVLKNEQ
Description: Localization of luminescence, media only wells with and without purified Renilla luciferase. Type of test: biochemical. The note with it: Table E, no cells, 100 μM substrate. The protocol:
as §1, §2, §3

Test [3] relates to Untransfected CHO (which do not naturally produce luciferase). In words: Localization of luminescence, untransfected cells. Type of test: cell-based, Chinese hamster. The note with it: Table F, 100 μM substrate; for RL (RLU): after addition of purified Renilla luciferase; for Subs (RLU): before exogenous luciferase. Here is the method:
as §4, §5

Setting [4] is: Table F, hRL2 cells, read immediately (coelenterazine) or 4 minutes post-addition (triacetyl coelenterazine).

Regarding `O=c1c(Cc2ccccc2)nc2c(Cc3ccccc3)[nH]c(-c3ccc(O)cc3)cn1-2` [compound VII, coelenterazine-h, reference compound], the “RL (RLU)” value in test [1] (Table E, hRL25 cells) is 331381 RLU; at Renilla luciferase (after addition of purified Renilla luciferase), 278467 RLU. In addition, the “Subs (RLU)” value in test [1] (Table E, hRL25 cells, read immediately (coelenterazine-h) or 10 minutes post-addition (POM-h)) was 39342 RLU; on Renilla luciferase (before luciferase) it was 763 RLU. The “Change of luminescence from cell samples after Tergitol NP-9 was added” value (from here on “Change of luminescence from cell samples”) in test [2] is recorded as “increased”.

Regarding `CC(=O)Oc1ccc(Cc2nc3c(Cc4ccccc4)nc(-c4ccc(OC(C)=O)cc4)cn3c2OC(C)=O)cc1` [compound IX, triacetyl-coelenterazine], the “RL (RLU)” value in test [1] (Table F, hRL2 cells) is reported as 229111 RLU; in test [3], 8910 RLU. The “Subs (RLU)” value stood at 224353 RLU in test [1] (setting [4]) and 864 RLU in test [3]. Also, in test [2], the “Change of luminescence from cell samples” value was “dropped almost to the level of autoluminescence”. The “Ratios - compound/reference Luminesc.” value in test [2] (reference compound VI, CHO cells transfected with pHRL CMV, 5 minutes after media replacement) is listed as 1.5. The “Ratios - compound/reference S/N” value in test [2] (reference compound VI, luminescence divided by autoluminescence) came to 9.1. For the same compound, in test [2] (reference compound VI, medium and serum alone), the “Ratios - compound/reference Autolum.” value stood at 0.2.

For “coelenterazine [compound VI, reference compound]”, the “RL (RLU)” value in test [1] (Table F, hRL2 cells) is reported as 110008374 RLU; in test [3] it was 11930147 RLU. The “Subs (RLU)” value came out at 139842 RLU in test [1] (setting [4]) and 6253 RLU in test [3]. Further, the “Change of luminescence from cell samples” value in test [2] was “increased”.
